Assay: refractive index (Na D-line) (dimensionless); xn = mol fraction of the nth substance listed
Conditions: 101 kPa, Liquid, Standard Abbe refractometry

CNCCO [2-(methylamino)ethanol] + O
refractive index
Conditions | 293.15 K | 298.15 K | 303.15 K | 308.15 K | 313.15 K | 318.15 K | 323.15 K
x1 = 0.0493 | 1.3559 | 1.3552 | 1.3544 | 1.3536 | 1.3527 | 1.3517 | 1.3507
x1 = 0.0657 | 1.3625 | 1.3617 | 1.3608 | 1.3599 | 1.3589 | 1.3579 | 1.3568
x1 = 0.1054 | 1.3767 | 1.3754 | 1.3744 | 1.3732 | 1.372 | 1.3708 | 1.3696
x1 = 0.1987 | 1.3997 | 1.3983 | 1.3967 | 1.3956 | 1.394 | 1.3921 | 1.3907
x1 = 0.301 | 1.4151 | 1.4137 | 1.412 | 1.4105 | 1.4091 | 1.4074 | 1.4055
x1 = 0.3834 | 1.4235 | 1.4218 | 1.4201 | 1.4186 | 1.417 | 1.4151 | 1.4134
x1 = 0.5041 | 1.4288 | 1.4272 | 1.4253 | 1.4239 | 1.4221 | 1.4204 | 1.4187
x1 = 0.6 | 1.4324 | 1.4306 | 1.4289 | 1.4272 | 1.4254 | 1.4238 | 1.422
x1 = 0.6974 | 1.4347 | 1.4329 | 1.4311 | 1.4294 | 1.4275 | 1.4257 | 1.4239
x1 = 0.8008 | 1.4366 | 1.4348 | 1.433 | 1.4313 | 1.4293 | 1.4274 | 1.4257
x1 = 0.9031 | 1.4381 | 1.4363 | 1.4344 | 1.4328 | 1.4306 | 1.4288 | 1.4268
x1 = 1 | 1.4393 | 1.4375 | 1.4356 | 1.4339 | 1.4318 | 1.4298 | 1.4278

Source: the NIST ThermoML archive (doi:10.1021/je060457+)
